Results reported in ChEMBL document CHEMBL1201862, “PubChem BioAssay data set” (2004).
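Exposure lasted 48 hours, with cells grown in 96-well plates and compounds tested at five concentrations. At the GI50, growth is halved.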 Active and inactive are the calls of the source. Cut-off read from the data, not from the text of the source: active = GI50 up to about 1.1 µM and inactive = higher.

What was measured:
Assay in all cases: DTP human tumour cell line panel, 48 h
786-0 = test system: 786-0
ACHN = test system: ACHN
BT-549 = test system: BT-549
CAKI-1 = test system: CAKI-1
DU-145 = test system: DU-145
HL-60 = test system: HL-60
HOP-92 = test system: HOP-92
LOX IMVI = test system: LOX IMVI
MOLT-4 = test system: MOLT-4
Malme-3M = test system: Malme-3M
NCI-H23 = test system: NCI-H23
NCI-H460 = test system: NCI-H460
NCI-H522 = test system: NCI-H522
NCI/ADR-RES = test system: NCI/ADR-RES
RPMI-8226 = test system: RPMI-8226
SK-MEL-5 = test system: SK-MEL-5
SK-OV-3 = test system: SK-OV-3
SNB-19 = test system: SNB-19
SNB-75 = test system: SNB-75
SR = test system: SR

Measured: GI50

CC12CC(=O)C3C(CCC4=CC(=O)CCC43C)C1CC=C2CC(=O)O (stereo not given)
inactive: 786-0 > 100 µM | ACHN > 100 µM | BT-549 > 100 µM | CAKI-1 > 100 µM | DU-145 > 100 µM | HL-60 > 100 µM | HOP-92 > 100 µM | LOX IMVI > 100 µM | MOLT-4 > 100 µM | Malme-3M > 100 µM | NCI-H23 > 100 µM | NCI-H460 > 100 µM | NCI-H522 > 100 µM | NCI/ADR-RES > 100 µM | RPMI-8226 > 100 µM | SK-MEL-5 > 100 µM | SK-OV-3 > 100 µM | SNB-19 > 100 µM | SNB-75 > 100 µM | SR > 100 µM

Cc1cn2c(C)csc2c1P(=O)(OC(C)C)OC(C)C
inactive: 786-0 > 100 µM | ACHN > 100 µM | BT-549 > 100 µM | CAKI-1 > 100 µM | DU-145 > 100 µM | HL-60 > 100 µM | HOP-92 > 100 µM | LOX IMVI > 100 µM | MOLT-4 > 100 µM | Malme-3M > 100 µM | NCI-H23 > 100 µM | NCI-H460 > 100 µM | NCI-H522 > 100 µM | NCI/ADR-RES > 100 µM | RPMI-8226 > 100 µM | SK-MEL-5 > 100 µM | SK-OV-3 > 100 µM | SNB-19 > 100 µM | SNB-75 > 100 µM | SR > 100 µM

CCOC(=O)/C(=C\c1cccc(C)c1)C(C)=O
inactive: 786-0 13.6 µM | ACHN 22.4 µM | BT-549 10.8 µM | CAKI-1 20.9 µM | DU-145 16.7 µM | HL-60 3.98 µM | HOP-92 6.7 µM | LOX IMVI 13.6 µM | MOLT-4 10.2 µM | Malme-3M 14.1 µM | NCI-H23 17 µM | NCI-H460 20.8 µM | NCI-H522 10 µM | NCI/ADR-RES 19.6 µM | RPMI-8226 8.17 µM | SK-MEL-5 16.6 µM | SK-OV-3 25.8 µM | SNB-19 17.7 µM | SNB-75 4.94 µM | SR 3.44 µM

N#Cc1c(=O)c2cc([N+](=O)[O-])ccc2n2c1[nH]c1ccccc12
inactive: 786-0 6.75 µM | ACHN 9.48 µM | BT-549 9.08 µM | CAKI-1 6.84 µM | DU-145 8.05 µM | HL-60 4.81 µM | HOP-92 2.62 µM | LOX IMVI 5.24 µM | MOLT-4 4.83 µM | Malme-3M 8.89 µM | NCI-H23 3.19 µM | NCI-H460 4.99 µM | NCI-H522 2.18 µM | NCI/ADR-RES 3.54 µM | RPMI-8226 1.91 µM | SK-MEL-5 13.3 µM | SK-OV-3 5.79 µM | SNB-19 5.41 µM | SNB-75 10.7 µM | SR 10.7 µM

c1ccc2c(Cc3c[nH]c4ccccc34)c[nH]c2c1 [ARUNDINE]
inactive: 786-0 18.5 µM | ACHN > 100 µM | BT-549 18.2 µM | CAKI-1 15.9 µM | DU-145 18.2 µM | HL-60 12.5 µM | HOP-92 16 µM | LOX IMVI 20.3 µM | MOLT-4 13.5 µM | Malme-3M 31.3 µM | NCI-H23 13.3 µM | NCI-H460 19 µM | NCI-H522 30.5 µM | NCI/ADR-RES 19.1 µM | RPMI-8226 20.2 µM | SK-MEL-5 13.7 µM | SK-OV-3 23.7 µM | SNB-19 21.7 µM | SNB-75 17.4 µM | SR 12.4 µM
